{
  "source": "paper PMC4231056",
  "about": "“Dihydroflavonol 4-Reductase Genes Encode Enzymes with Contrasting Substrate Specificity and Show Divergent Gene Expression Profiles in Fragaria Species” (PLoS ONE, 2014)",
  "key": {"[1]": {"target": "T1, DFR1s (recombinant, F. vesca) (Fragaria vesca, UniProt A0A0A0PTI9)", "T1 construct": "gene DFR; full-length ORF, 333 residues; expressed in yeast from pYES vector; not purified; result stated for all clones together", "T1 sequence (A0A0A0PTI9 1-333)": "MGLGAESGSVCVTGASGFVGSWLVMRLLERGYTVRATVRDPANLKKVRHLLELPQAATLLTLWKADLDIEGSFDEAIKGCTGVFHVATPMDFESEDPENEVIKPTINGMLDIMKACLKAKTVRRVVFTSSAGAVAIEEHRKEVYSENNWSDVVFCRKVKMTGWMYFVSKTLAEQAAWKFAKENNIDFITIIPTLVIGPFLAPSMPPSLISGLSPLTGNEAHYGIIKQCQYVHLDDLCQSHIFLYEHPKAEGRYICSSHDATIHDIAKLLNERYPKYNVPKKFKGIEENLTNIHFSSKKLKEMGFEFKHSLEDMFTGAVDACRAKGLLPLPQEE", "assay": "radiolabelled turnover assay, yeast protein preparation", "assay_type": "biochemical", "conditions": "NADPH; labelled compound (14C)"}, "[2]": {"target": "T2, DFR2s (recombinant, F. vesca) (Fragaria vesca, UniProt A0A0A0PVL5)", "T2 construct": "gene DFR; full-length ORF, 349 residues; expressed in yeast from pYES vector; not purified; result stated for all clones together", "T2 sequence (A0A0A0PVL5 1-349)": "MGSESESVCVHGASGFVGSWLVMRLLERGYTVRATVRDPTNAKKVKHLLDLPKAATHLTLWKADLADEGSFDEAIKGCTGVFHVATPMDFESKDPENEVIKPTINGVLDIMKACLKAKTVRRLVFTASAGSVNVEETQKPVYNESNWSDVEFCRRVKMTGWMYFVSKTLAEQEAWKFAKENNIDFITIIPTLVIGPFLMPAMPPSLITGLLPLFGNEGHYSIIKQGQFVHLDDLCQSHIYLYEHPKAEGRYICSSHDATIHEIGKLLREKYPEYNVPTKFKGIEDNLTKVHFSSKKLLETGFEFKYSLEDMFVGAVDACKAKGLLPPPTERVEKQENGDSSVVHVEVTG", "assay": "radiolabelled turnover assay, yeast protein preparation", "assay_type": "biochemical", "conditions": "NADPH; labelled compound (14C)"}, "[3]": {"substrate": "O=C1c2c(O)cc(O)cc2O[C@H](c2cc(O)c(O)c(O)c2)[C@H]1O", "assay": "radiolabelled TLC assay, Lineweaver-Burk, yeast protein preparation", "assay_type": "biochemical, Fragaria x ananassa", "conditions": "NADPH; optimised conditions (pH optimum 5.75); labelled compound (14C); K cat is per kg protein, a specific rate", "text": "(§1) radiolabelled TLC assay, Lineweaver-Burk, yeast protein preparation on DFR2 (recombinant, KC894055)"}, "[4]": {"substrate": "O=C1c2c(O)cc(O)cc2O[C@H](c2ccc(O)c(O)c2)[C@H]1O", "assay": "radiolabelled TLC assay, Lineweaver-Burk, yeast protein preparation", "assay_type": "biochemical, Fragaria x ananassa", "conditions": "NADPH; optimised conditions (pH optimum 6.25); labelled compound (14C); K cat is per kg protein, a specific rate", "text": "as §1"}, "[5]": {"substrate": "O=C1c2c(O)cc(O)cc2O[C@H](c2ccc(O)cc2)[C@H]1O", "assay": "radiolabelled TLC assay, Lineweaver-Burk, yeast protein preparation", "assay_type": "biochemical, Fragaria x ananassa", "conditions": "NADPH; optimised conditions (pH optimum 6.00); labelled compound (14C); K cat is per kg protein, a specific rate", "text": "radiolabelled TLC assay, Lineweaver-Burk, yeast protein preparation on DFR1 (recombinant, KC894048)"}},
  "data": [
    {"molecule": "O=C1c2c(O)cc(O)cc2O[C@H](c2ccc(O)cc2)[C@H]1O", "note": "[DHK]", "values": [
      {"measurement": "radiolabelled turnover assay, yeast protein preparation", "setting": "[1]", "value": "Recombinant DFR1 s, in contrast, were selective for DHK"}
    ]},
    {"molecule": "O=C1c2c(O)cc(O)cc2O[C@H](c2cc(O)c(O)c(O)c2)[C@H]1O", "note": "[DHM]", "values": [
      {"measurement": "radiolabelled turnover assay, yeast protein preparation", "setting": "[2]", "value": "The recombinant DFR2s converted DHQ and DHM to leucocyanidin and leucodelphinidin"}
    ]},
    {"molecule": "O=C1c2c(O)cc(O)cc2O[C@H](c2ccc(O)c(O)c2)[C@H]1O", "note": "[DHQ]", "values": [
      {"measurement": "radiolabelled turnover assay, yeast protein preparation", "setting": "[2]", "value": "The recombinant DFR2s converted DHQ and DHM to leucocyanidin and leucodelphinidin"}
    ]},
    {"molecule": "DFR2 (recombinant, KC894055) (Fragaria x ananassa) (protein, full-length ORF, 349 residues; expressed in yeast INVSc1 from pYES2.1/V5-His-TOPO; reverse primer holds the stop codon; cell protein preparation, not purified) MGSESESVCVTGASGFVGSWLVMRLLERGYTVRATVRDPTNAKKVKHLLDLPKAATHLTLWKADLADEGSFDEAIKGCSGVFHVATPMDFESKDPENEVIKPTINGVLDIMKACLKAKTVRRLVFTASAGSVNVEETQKPVYNESNWSDVEFCRRVKMTGWMYFVSKTLAEQEAWKFAKENNIDFITIIPTLVIGPFLMPAMPPSLITGLSPLFGNEGHYSIIKQGQFVHLDDLCQSHIYLYEHPKAEGRYICSSHDATIHEIAKLLREKYPEYNVPTKFKGIEDNLTKVHFSSKKLLETGFEFKYSLEDMFVGAVDACKAKGLLPPPTERVEKQEAGDSGVVHVEVTG", "values": [
      {"measurement": "Km", "setting": "[3]", "value": 2.3, "unit": "µM"},
      {"measurement": "Km", "setting": "[4]", "value": 0.40, "unit": "µM"}
    ]},
    {"molecule": "DFR1 (recombinant, KC894048) (Fragaria x ananassa) (protein, full-length ORF, 341 residues; expressed in yeast INVSc1 from pYES2.1/V5-His-TOPO; reverse primer starts with the stop codon; cell protein preparation, not purified) MGLGAESGSVCVTGASGFVGSWLVMRLLEHGYTVRATVRDPANLKKVRHLLELPQAATRLTLWKADLDVEGSFDEAIKGCTGVFHVATPMDFESEDPENEVIKPTINGMLDIMKACLKAKTVRRVVFTSSAGAVAIEEHRKEVYSENNWSDVVFCRKVKMTGWMYFVSKTLAEQAAWKFAKENNIDFITIIPTLVIGPFLAPSMPPSLISGLSPLTGNEAHYGIIKQCQYVHLDDLCQSHIFLYEHPKAEGRYICSSHDATIHDIAKLLNEKYPKYNVPKKFKGIEENLTNIHFSSKKLKEMGFEFKHSLEDMFTGAVDACREKGLLPLPQEEETEKRRAG", "values": [
      {"measurement": "Km", "setting": "[5]", "value": 0.40, "unit": "µM"}
    ]}
  ]
}
